Broadly, the Ki is the equilibrium dissociation constant of an inhibitor or competing ligand from its target.

Test in all cases: Fluorescence Polarization Affinity Measurements.
Common to all, as to settings: pH 7.2; 22 °C
For orientation: Polarisation of emitted light reports the rotation of a fluorescent probe.

Assay [1] deals with T1, Baculoviral IAP repeat-containing protein 2 [266-354] (Homo sapiens, UniProt Q13490).
T1 construct: 266-354
The procedure:
(§1) Samples for fluorescence polarization affinity measurements were prepared by addition of serial dilutions of target protein to each well containing antagonist and polarization probe in the buffer. Samples were read after 30-min incubation. Fluorescence polarization values were plotted as a function of the antagonist concentration, and the IC50 values were obtained by fitting the data to a four-parameter equation using KaleidaGraph software. Ki values for the antagonists were determined from the IC50 values.

Assay [2] addresses T2, Baculoviral IAP repeat-containing protein 3 [252-340] (Homo sapiens, UniProt Q13489).
T2 construct: 252-340
As to the method: as §1

Assay [3] concerns the target T3, Complex of Baculoviral IAP repeat-containing protein 7 [1-159,S150G] and E3 ubiquitin-protein ligase XIAP [336-348] (Homo sapiens, UniProt Q96CA5, S150G).
T3 construct: 1-159; 336-348
The procedure: as §1

For assay [4], the target named is T4, E3 ubiquitin-protein ligase XIAP [241-356] (Homo sapiens, UniProt P98170).
T4 construct: 241-356
As to the method:
as §1

Where a SMILES comes first, the peptide text is derived from it.

For `CN[C@@H](C)C(=O)N[C@H]1CCC[C@H]2SC(C)(C)[C@@H](C(=O)Nc3cc(C)nn3-c3ccccc3)N2C1=O` [(3R,6S,9aR)-2,2-dimethyl-N-(3-methyl-1-phenyl-1H-pyrazol-5-yl)-6-[(2S)-2-(methylamino)propanamido]-5-oxo-octahydroazepino[2,1-b][1,3]thiazole-3-carboxamide], the figures for the inhibition constant (Ki) in assay [1] and in assay [2] were 50 nM and 130 nM, respectively.
Regarding `CN[C@@H](C)C(=O)N[C@H]1CCC[C@H]2SC[C@@H](C(=O)Nc3cc(C)nn3-c3ccccc3)N2C1=O` [(3R,6S,9aR)-N-(3-methyl-1-phenyl-1H-pyrazol-5-yl)-6-[(2S)-2-(methylamino)propanamido]-5-oxo-octahydroazepino[2,1-b][1,3]thiazole-3-carboxamide], the inhibitory constant (Ki) stood at 110 nM in assay [1] and 490 nM in assay [2].
With `CC(C)[C@H](NC(=O)[C@H](C)N)C(=O)N1CCC[C@H]1C(=O)N[C@@H](Cc1c[nH]c2ccccc12)C(=O)O` [L-alanyl-L-valyl-L-prolyl-L-tryptophan] (H-AVPW-OH), the inhibitory constant (Ki) in assay [1] worked out at 30 nM; in assay [3], 40 nM; in assay [2] it was 70 nM; in assay [4] it was 50 nM.

The record behind these values is BindingDB's records for doi:10.1021/cb600276q (Genentech, 2006).
